Source: patent US10010614B2, “Derivatives of GLP-1 like peptides, and uses thereof” (Novo Nordisk A/S, priority 2013, dated 2018)
Like-named read-outs stand apart in the source and are kept apart here. Numbered stars: 1 amine (or outer) side, 2 acyl side, 3 side chain; on linkers, the order of the positions; unused ones are H or OH. Square brackets hold non-standard residues; d marks the D form. Side chains are listed from the residue outwards. Peptide text beside a SMILES is read from it. * marks the point of attachment. C20 diacid = O=C(O)CCCCCCCCCCCCCCCCCCC(=O)*; γGlu = O=C(O)[C@H](CCC(=O)[*:2])N[*:1]; εLys = N[C@@H](CCCCN[*:1])C(=O)[*:2]; Trx = NC[C@H]1CC[C@H](C(=O)O)CC1; AEEA = NCCOCCOCC(=O)O; Aib = CC(C)(N)C(=O)O

How the values were obtained:
[1] = molecular target: T1, human GLP-1 receptor (Homo sapiens, UniProt P43220); assay: In vitro potency, CRE luciferase reporter gene assay in BHK cells expressing the human GLP-1 receptor; assay type: cell-based; settings: whole cell reporter gene assay, 3 h incubation, no HSA, averages of at least two replicates
T1 construct: expressed in transfected cells; host or cells: membranes prepared from BHK cells (parent line BHKTS13), clone FCW467-12A
T1 sequence (P43220 24-463): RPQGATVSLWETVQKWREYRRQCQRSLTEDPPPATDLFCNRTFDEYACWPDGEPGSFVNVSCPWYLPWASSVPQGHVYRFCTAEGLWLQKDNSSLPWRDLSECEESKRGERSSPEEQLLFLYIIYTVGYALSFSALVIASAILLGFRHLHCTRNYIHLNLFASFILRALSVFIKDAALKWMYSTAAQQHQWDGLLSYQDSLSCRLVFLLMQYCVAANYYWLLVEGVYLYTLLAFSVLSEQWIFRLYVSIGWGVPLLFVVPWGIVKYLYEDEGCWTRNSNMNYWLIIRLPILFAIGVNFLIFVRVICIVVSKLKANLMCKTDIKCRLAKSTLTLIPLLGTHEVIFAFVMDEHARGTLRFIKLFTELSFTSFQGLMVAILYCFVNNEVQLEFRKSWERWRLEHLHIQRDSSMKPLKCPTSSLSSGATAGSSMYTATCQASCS
Summary of the method: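 Stably transfected BHK cells (5×10^3/well) expressing human GLP-1R with a CRE-luciferase reporter; compounds diluted in buffer with 2% ovalbumin and 0.2% Pluronic F-68, final 1×10^−7 to 1×10^−14 M. Incubated 3 h at 37 °C, 5% CO2, then luminescence read; potency from non-linear log(agonist)–response fit, mean of ≥2 replicates.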

[2] = molecular target: T1, human GLP-1 receptor; assay: GLP-1 receptor binding, competitive binding assay (125I-GLP-1, SPA) on isolated membranes;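 note: test compounds added at a range of concentrations to membranes from cells expressing the human GLP-1 receptor, scored by displacement of labelled ligand, read with WGA SPA beads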
[3] = High HSA IC50 (nM), high serum albumin (2.0% HSA final assay concentration)
[4] = Low HSA IC50 (nM), low serum albumin (max. 0.001% final assay concentration)
[5] = high serum albumin (2.0% HSA final assay concentration), read-out: High HSA IC50
[6] = low serum albumin (max. 0.001% final assay concentration), read-out: Low HSA IC50

Row | SMILES | EC50 [1] [nM] | IC50 [2, 3] [nM] | IC50 [2, 4] [nM] | IC50 [2, 5] [nM] | IC50 [2, 6] [nM]
1 | CC[C@H](C)[C@H](NC(=O)[C@H](Cc1ccccc1)NC(=O)[C@H](CCC(=O)O)NC(=O)[C@H](CCCNC(=N)N)NC(=O)[C@H](C)NC(=O)[C@H](C)NC(=O)[C@H](CCC(N)=O)NC(=O)[C@H](CCC(=O)O)NC(=O)[C@H](CCC(=O)O)NC(=O)[C@H](CC(C)C)NC(=O)[C@H](Cc1ccc(O)cc1)NC(=O)[C@H](CO)NC(=O)[C@H](CO)NC(=O)[C@@H](NC(=O)[C@H](CC(=O)O)NC(=O)[C@H](CO)NC(=O)[C@@H](NC(=O)[C@H](Cc1ccccc1)NC(=O)[C@@H](NC(=O)CNC(=O)[C@H](CCC(=O)O)NC(=O)C(C)(C)NC(=O)[C@@H](N)Cc1c[nH]cn1)[C@@H](C)O)[C@@H](C)O)C(C)C)C(=O)N[C@@H](C)C(=O)N[C@@H](Cc1c[nH]c2ccccc12)C(=O)N[C@@H](CC(C)C)C(=O)N[C@H](C(=O)N[C@@H](CCCNC(=N)N)C(=O)NCC(=O)N[C@@H](CCCNC(=N)N)C(=O)NCC(=O)N[C@@H](CCCCNC(=O)COCCOCCNC(=O)COCCOCCNC(=O)COCCOCCNC(=O)COCCOCCNC(=O)COCCOCCNC(=O)COCCOCCNC(=O)CC[C@H](NC(=O)[C@H]1CC[C@H](CNC(=O)CCCCCCCCCCCCCCCCCCC(=O)O)CC1)C(=O)O)C(=O)NCC(=O)NCC(=O)N[C@@H](CO)C(=O)N[C@@H](CCCCNC(=O)COCCOCCNC(=O)COCCOCCNC(=O)COCCOCCNC(=O)COCCOCCNC(=O)COCCOCCNC(=O)COCCOCCNC(=O)CC[C@H](NC(=O)[C@H]1CC[C@H](CNC(=O)CCCCCCCCCCCCCCCCCCC(=O)O)CC1)C(=O)O)C(=O)O)C(C)C [Example 24] (H-H[Aib]EGTFTSDVSSYLEEQAAREFIAWLVRGRGK([AEEA-AEEA-AEEA-AEEA-AEEA-AEEA-γGlu-Trx-C20 diacid])GGSK([AEEA-AEEA-AEEA-AEEA-AEEA-AEEA-γGlu-Trx-C20 diacid])-OH) | 0.007 | 84 | 0.67 | – | –
2 | CC[C@H](C)[C@H](NC(=O)[C@H](Cc1ccccc1)NC(=O)[C@H](CCC(=O)O)NC(=O)[C@H](CCCNC(=N)N)NC(=O)[C@H](C)NC(=O)[C@H](C)NC(=O)[C@H](CCC(N)=O)NC(=O)[C@H](CCC(=O)O)NC(=O)[C@H](CCC(=O)O)NC(=O)[C@H](CC(C)C)NC(=O)[C@H](Cc1ccc(O)cc1)NC(=O)[C@H](CO)NC(=O)[C@H](CO)NC(=O)[C@@H](NC(=O)[C@H](CC(=O)O)NC(=O)[C@H](CO)NC(=O)[C@@H](NC(=O)[C@H](Cc1ccccc1)NC(=O)[C@@H](NC(=O)CNC(=O)[C@H](CCC(=O)O)NC(=O)C(C)(C)NC(=O)[C@@H](N)Cc1c[nH]cn1)[C@@H](C)O)[C@@H](C)O)C(C)C)C(=O)N[C@@H](C)C(=O)N[C@@H](Cc1c[nH]c2ccccc12)C(=O)N[C@@H](CC(C)C)C(=O)N[C@H](C(=O)N[C@@H](CCCNC(=N)N)C(=O)NCC(=O)N[C@@H](CCCCNC(=O)COCCOCCNC(=O)COCCOCCNC(=O)CC[C@H](NC(=O)[C@H]1CC[C@H](CNC(=O)CCCCCCCCCCCCCCCCCCC(=O)O)CC1)C(=O)O)C(=O)NCC(=O)N1CCC[C@H]1C(=O)N[C@@H](C)C(=O)N[C@@H](CO)C(=O)N[C@@H](CCC(=O)O)C(=O)N[C@@H](CCCCNC(=O)COCCOCCNC(=O)COCCOCCNC(=O)CC[C@H](NC(=O)[C@H]1CC[C@H](CNC(=O)CCCCCCCCCCCCCCCCCCC(=O)O)CC1)C(=O)O)C(=O)O)C(C)C [Example 15] (H-H[Aib]EGTFTSDVSSYLEEQAAREFIAWLVRGK([AEEA-AEEA-γGlu-Trx-C20 diacid])GPASEK([AEEA-AEEA-γGlu-Trx-C20 diacid])-OH) | 0.02 | 928 | 1.6 | – | –
3 | CC[C@H](C)[C@H](NC(=O)[C@H](Cc1ccccc1)NC(=O)[C@H](CCC(=O)O)NC(=O)[C@H](CCCNC(=N)N)NC(=O)[C@H](C)NC(=O)[C@H](C)NC(=O)[C@H](CCC(N)=O)NC(=O)[C@H](CCC(=O)O)NC(=O)[C@H](CCC(=O)O)NC(=O)[C@H](CC(C)C)NC(=O)[C@H](Cc1ccc(O)cc1)NC(=O)[C@H](CO)NC(=O)[C@H](CO)NC(=O)[C@@H](NC(=O)[C@H](CC(=O)O)NC(=O)[C@H](CO)NC(=O)[C@@H](NC(=O)[C@H](Cc1ccccc1)NC(=O)[C@@H](NC(=O)CNC(=O)[C@H](CCC(=O)O)NC(=O)C(C)(C)NC(=O)[C@@H](N)Cc1c[nH]cn1)[C@@H](C)O)[C@@H](C)O)C(C)C)C(=O)N[C@@H](C)C(=O)N[C@@H](Cc1c[nH]c2ccccc12)C(=O)N[C@@H](CC(C)C)C(=O)N[C@H](C(=O)N[C@@H](CCCNC(=N)N)C(=O)NCC(=O)N[C@@H](CCCCNC(=O)COCCOCCNC(=O)COCCOCCNC(=O)CC[C@H](NC(=O)[C@H]1CC[C@H](CNC(=O)CCCCCCCCCCCCCCCCCCC(=O)O)CC1)C(=O)O)C(=O)NCC(=O)N[C@@H](C)C(=O)N[C@@H](CCC(=O)O)C(=O)N[C@@H](CO)C(=O)N1CCC[C@H]1C(=O)N[C@@H](CCCCNC(=O)COCCOCCNC(=O)COCCOCCNC(=O)CC[C@H](NC(=O)[C@H]1CC[C@H](CNC(=O)CCCCCCCCCCCCCCCCCCC(=O)O)CC1)C(=O)O)C(=O)O)C(C)C [Example 14] (H-H[Aib]EGTFTSDVSSYLEEQAAREFIAWLVRGK([AEEA-AEEA-γGlu-Trx-C20 diacid])GAESPK([AEEA-AEEA-γGlu-Trx-C20 diacid])-OH) | 0.022 | 530 | 1.5 | – | –
4 | CC[C@H](C)[C@H](NC(=O)[C@H](Cc1ccccc1)NC(=O)[C@H](CCC(=O)O)NC(=O)[C@H](CCCNC(=N)N)NC(=O)[C@H](C)NC(=O)[C@H](C)NC(=O)[C@H](CCC(N)=O)NC(=O)[C@H](CCC(=O)O)NC(=O)[C@H](CCC(=O)O)NC(=O)[C@H](CC(C)C)NC(=O)[C@H](Cc1ccc(O)cc1)NC(=O)[C@H](CO)NC(=O)[C@H](CO)NC(=O)[C@@H](NC(=O)[C@H](CC(=O)O)NC(=O)[C@H](CO)NC(=O)[C@@H](NC(=O)[C@H](Cc1ccccc1)NC(=O)[C@@H](NC(=O)CNC(=O)[C@H](CCC(=O)O)NC(=O)C(C)(C)NC(=O)[C@@H](N)Cc1c[nH]cn1)[C@@H](C)O)[C@@H](C)O)C(C)C)C(=O)N[C@@H](C)C(=O)N[C@@H](Cc1c[nH]c2ccccc12)C(=O)N[C@@H](CC(C)C)C(=O)N[C@H](C(=O)N[C@@H](CCCNC(=N)N)C(=O)NCC(=O)N[C@@H](CCCNC(=N)N)C(=O)NCC(=O)N[C@@H](CCCCNC(=O)COCCOCCNC(=O)COCCOCCNC(=O)COCCOCCNC(=O)COCCOCCNC(=O)COCCOCCNC(=O)COCCOCCNC(=O)[C@@H](N)CCCCNC(=O)[C@@H](N)CCCCNC(=O)CCCCCCCCCCCCCCCCCCC(=O)O)C(=O)NCC(=O)NCC(=O)N[C@@H](CO)C(=O)N[C@@H](CCCCNC(=O)COCCOCCNC(=O)COCCOCCNC(=O)COCCOCCNC(=O)COCCOCCNC(=O)COCCOCCNC(=O)COCCOCCNC(=O)[C@@H](N)CCCCNC(=O)[C@@H](N)CCCCNC(=O)CCCCCCCCCCCCCCCCCCC(=O)O)C(=O)O)C(C)C [Example 28] (H-H[Aib]EGTFTSDVSSYLEEQAAREFIAWLVRGRGK([AEEA-AEEA-AEEA-AEEA-AEEA-AEEA-εLys-εLys-C20 diacid])GGSK([AEEA-AEEA-AEEA-AEEA-AEEA-AEEA-εLys-εLys-C20 diacid])-OH; N-terminus and C-terminus assumed) | 0.0034 | – | – | 30 | 0.05
5 | CC[C@H](C)[C@H](NC(=O)[C@H](Cc1ccccc1)NC(=O)[C@H](CCC(=O)O)NC(=O)[C@H](CCCNC(=N)N)NC(=O)[C@H](C)NC(=O)[C@H](C)NC(=O)[C@H](CCC(N)=O)NC(=O)[C@H](CCC(=O)O)NC(=O)[C@H](CCC(=O)O)NC(=O)[C@H](CC(C)C)NC(=O)[C@H](Cc1ccc(O)cc1)NC(=O)[C@H](CO)NC(=O)[C@H](CO)NC(=O)[C@@H](NC(=O)[C@H](CC(=O)O)NC(=O)[C@H](CO)NC(=O)[C@@H](NC(=O)[C@H](Cc1ccccc1)NC(=O)[C@@H](NC(=O)CNC(=O)[C@H](CCC(=O)O)NC(=O)C(C)(C)NC(=O)[C@@H](N)Cc1c[nH]cn1)[C@@H](C)O)[C@@H](C)O)C(C)C)C(=O)N[C@@H](C)C(=O)N[C@@H](Cc1c[nH]c2ccccc12)C(=O)N[C@@H](CC(C)C)C(=O)N[C@H](C(=O)N[C@@H](CCCNC(=N)N)C(=O)NCC(=O)N[C@@H](CCCNC(=N)N)C(=O)NCC(=O)N[C@@H](CCCCNC(=O)COCCOCCNC(=O)COCCOCCNC(=O)COCCOCCNC(=O)COCCOCCNC(=O)[C@@H](N)CCCCNC(=O)[C@@H](N)CCCCNC(=O)CCCCCCCCCCCCCCCCCCC(=O)O)C(=O)NCC(=O)NCC(=O)N[C@@H](CO)C(=O)N[C@@H](CCCCNC(=O)COCCOCCNC(=O)COCCOCCNC(=O)COCCOCCNC(=O)COCCOCCNC(=O)[C@@H](N)CCCCNC(=O)[C@@H](N)CCCCNC(=O)CCCCCCCCCCCCCCCCCCC(=O)O)C(=O)O)C(C)C [Example 25] (H-H[Aib]EGTFTSDVSSYLEEQAAREFIAWLVRGRGK([AEEA-AEEA-AEEA-AEEA-εLys-εLys-C20 diacid])GGSK([AEEA-AEEA-AEEA-AEEA-εLys-εLys-C20 diacid])-OH; N-terminus and C-terminus assumed) | 0.01 | – | – | 38 | 0.22
